For data set [1], the target named is T1, ImiS (Aeromonas veronii, UniProt O31272).
T1 construct: made in house; host or cells: E. coli BL21 (DE3), plasmid pET-26b-ImiS
The data set is described as follows: Inhibitor reversibility, activity recovery after rapid 100-fold dilution. In kind it is biochemical, Aeromonas veronii bv. sobria. Particulars: 5.0 μM enzyme, 0.7 μM inhibitor, 10 min pre-incubation. The method, then:
It can be observed in Figure 4d–f that the Q value remains almost unchanged in the presence or absence of inhibitors, likely because the formation of the enzyme-inhibitor complex (EI), that slowed down substrate hydrolysis, was reversible. […] We assayed the binding reversibility of DC1 to MβLs by measuring the enzymatic activity recovery after a large, rapid dilution of the MβL-DC1 complex.
Determination of inhibitor reversibility
NDM-1, ImiS and L1 were incubated at a concentration of 1.3, 5.0 and 5.8 μM, which is 100-fold over the concentration required for the activity assay, with DC1 at a concentration of 1.5, 0.7 and […]
After 10 minutes pre-incubation, the recovery of enzymatic activity was determined after rapid and large dilution (100-fold) with the reaction […]
Figure S2. Recovery of NDM-1 (a), ImiS (b) and L1 (c) activity after rapid dilution of the enzyme-inhibitor complex. The curve in black refers to the control sample pre-incubated and diluted in the absence of inhibitor. Curves in red refer to MβLs pre-incubated with DC1. […]
Target sequence in this assay (O31272 28-255 limits assumed): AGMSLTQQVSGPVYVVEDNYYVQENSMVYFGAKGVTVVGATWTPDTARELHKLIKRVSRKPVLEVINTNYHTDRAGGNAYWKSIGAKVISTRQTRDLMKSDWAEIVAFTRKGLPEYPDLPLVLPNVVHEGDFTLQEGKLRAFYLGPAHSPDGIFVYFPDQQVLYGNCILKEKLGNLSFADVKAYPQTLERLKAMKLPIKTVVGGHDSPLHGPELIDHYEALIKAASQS

Data set [2] addresses T1, ImiS. Kind of data set: Inhibition kinetics, Lineweaver–Burk plots. The class given is biochemical, Aeromonas veronii bv. sobria. How it is done:
(§1) The dithiocarbamates, MβLs and substrates samples were prepared with 30 mM Tris, pH 7.0. […] Enzymes and inhibitors were pre-incubated for 5 min before adding substrate. […] The IC50 values were nonlinearly fitted by plotting the average percentage inhibition against inhibitor concentration. The inhibition modes of DC1 to ImiS, NDM-1 and L1 were assayed by generating Lineweaver–Burk plots, and Ki values were obtained by fitting initial velocity versus substrate concentration at each inhibitor concentration, using SigmaPlot 12.0 (Systat Software Inc., San Jose, CA, USA).
To further identify the inhibition mode of the DCs against MβLs, we performed inhibition kinetics of NDM-1, ImiS and L1 by DC1, at different concentrations, with different substrate concentrations. […] Enzyme and inhibitors were pre-incubated for 5 min before starting the kinetic assays. All experimental hydrolytic rates of substrates were determined in triplicate. The inhibition mode of dithiocarbamates on MβLs was identified by generating Lineweaver–Burk plots, and Ki values were gained by fitting the initial velocity versus substrate concentration at each inhibitor concentration, using SigmaPlot 12.0.
Target sequence in this assay (O31272 28-255): as the sequence (O31272 28-255 limits assumed) above

A further data set concerns the target T2, L1 (Stenotrophomonas maltophilia, UniProt P52700).
T2 construct: made in house; host or cells: E. coli BL21 (DE3), plasmid pET-26b-L1
Kind of data set: biochemical. Particulars: read-out: inhibition against L1. How it is done:
as §1
(§2) To evaluate the inhibitory activity of the dithiocarbamates, we over-expressed and purified MβLs NDM-1, VIM-2 and IMP-1 (B1), ImiS (B2), and L1 (B3) from three subclasses as previously reported. The inhibition experiments were performed with an Agilent UV8453 spectrometer. […] The concentrations of inhibitors were varied between 0 and 200 μM. The initial reaction rates were determined in the absence and presence of inhibitors in triplicate, and the generated average values were recorded.

In another data set the target is T3, NDM-1 (Klebsiella pneumoniae, UniProt C7C422).
T3 construct: made in house; host or cells: E. coli BL21 (DE3), plasmid pET26b-NDM-1
The data set is described as follows: biochemical. Particulars: read-out: inhibition against NDM-1. How it is done: as §1, §2

The target of another data set is T4, IMP-1 (Serratia marcescens, UniProt P52699).
T4 construct: made in house; host or cells: E. coli BL21 (DE3), plasmid pET26b-IMP-1
Kind of data set: biochemical. As to conditions: read-out: inhibition against IMP-1. How it is done:
as §1, §2

Data set [3] relates to mouse fibroblast cells (L-929). Kind of data set: Cytotoxicity assay (MTT). In kind it is cell-based. Particulars: concentration as high as 250 μM, 48 h. The method, then: The cytotoxicity assays were performed to evaluate the toxicity of DC1, DC3, DC7 and DC9 in mouse fibroblast cells (L-929). The cells were seeded into 96-well plates at a cell density of 1.0 × 10^4 cells/well, in 100 μL of culture medium and maintained for 24 h. Then, the inhibitors with working concentrations (15.6, 31.25, 62.5, 125, 250, and 500 μM) were added to the 96-well plates and incubated for another 48 h. Three wells containing only cells were suspended in a mixture solution of 98 μL complete medium, as controls for cell viability without inhibitors. Three wells containing only the complete medium were used as blank controls. Following that, the medium was removed, and 100 μL of fresh culture medium and 10 μL MTT were added to each well. After incubation for 4 h, the trays were then vigorously shaken to solubilize the formed product, and the absorbance, at a wavelength of 490 nm, was read on a microplate reader and analyzed. All experiments were conducted in triplicate, and the data are expressed as mean ± standard deviation.
The potential toxicity of dthiocarbamates DC1, DC3, DC7 and DC9 as representatives was assayed using the mouse fibroblast cells (L929) treated with different concentrations of inhibitors (15.625, 31.25, 62.5, 125, 250 and 500 μM).

Molecules are shown by their SMILES.

Broadly, the melting point is the temperature, or range, at which the solid turns liquid. In general, Ki refers to a dissociation constant, usually derived from enzyme kinetics or from competition with a known ligand. In general, inhibition refers to the share of the control response that was lost under treatment.

T4 sequence (P52699 19-246 limits assumed): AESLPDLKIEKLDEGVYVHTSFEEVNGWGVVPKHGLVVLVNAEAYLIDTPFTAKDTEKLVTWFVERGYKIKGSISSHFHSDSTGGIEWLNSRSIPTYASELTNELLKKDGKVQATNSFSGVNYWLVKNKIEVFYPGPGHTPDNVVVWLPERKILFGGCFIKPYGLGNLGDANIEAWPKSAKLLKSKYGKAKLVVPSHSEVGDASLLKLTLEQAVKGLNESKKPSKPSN
T2 sequence (P52700 34-290): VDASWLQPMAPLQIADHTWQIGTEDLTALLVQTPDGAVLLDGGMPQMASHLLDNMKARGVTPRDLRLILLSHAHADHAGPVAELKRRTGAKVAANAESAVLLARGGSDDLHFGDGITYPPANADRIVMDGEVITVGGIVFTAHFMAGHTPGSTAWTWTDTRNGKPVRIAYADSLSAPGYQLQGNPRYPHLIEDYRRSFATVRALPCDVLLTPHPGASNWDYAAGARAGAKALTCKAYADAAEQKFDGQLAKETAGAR
T3 sequence (C7C422 29-270 limits assumed): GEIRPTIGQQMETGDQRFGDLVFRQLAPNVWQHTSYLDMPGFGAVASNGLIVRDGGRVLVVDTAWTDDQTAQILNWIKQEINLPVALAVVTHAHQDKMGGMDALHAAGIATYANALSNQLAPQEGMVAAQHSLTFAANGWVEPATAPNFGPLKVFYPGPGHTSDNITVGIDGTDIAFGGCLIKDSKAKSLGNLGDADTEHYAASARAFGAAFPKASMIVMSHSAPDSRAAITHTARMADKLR

As to `O=C(NNC(=S)[S][K])c1ccccc1O` [DC1], the melting point fell in the range of 264 to 265 °C. For the same molecule, at ImiS [1], the “reversibility, recovery of ImiS activity after rapid dilution” value is recorded as “reversible inhibitor”. The “inhibition mode against ImiS” value against ImiS [2] (Lineweaver–Burk plots) was “partially mixed inhibition”. Also, the Ki at ImiS [2] (read-out: Ki against ImiS, imipenem 20-120 µM, inhibitor 0-20 μM, SigmaPlot fit) stood at 140 nM. Moreover, the inhibition at 8 µM on L1 is more than 90%. Moreover, the inhibition at 20 µM at NDM-1 was more than 90%. For the same molecule, the inhibition at 10 µM on IMP-1 was more than 90%. Besides, in data set [3], the “survival rate of L929 mouse cells” value was “higher than 80%”.

(Values after paper PMC6920875, “Dithiocarbamate as a Valuable Scaffold for the Inhibition of Metallo-β-Lactmases” (Biomolecules, 2019).)
